# Assay results taken from ChEMBL document CHEMBL1201862, “PubChem BioAssay data set” (2004).
# Activity calls are given as the source filed them.
# What was measured:
# [1] = system: Escherichia coli; experiment: microbe, parasite or virus in culture
# [2] = biological target: Mu-type opioid receptor (Homo sapiens, UniProt P35372); experiment: Counterscreen for agonists of heterodimerization of the mu 1 (OPRM1) and delta 1 (OPRD1) opioid receptors: Luminescence-based cell-based high throughput dose response assay to identify agonists of OPRM1 homodimerization.; type: functional;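 note: U2OS cells expressing OPRM1 and beta-arrestin as split beta-galactosidase partners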
# [3] = biological target: 5-hydroxytryptamine receptor 5A (Homo sapiens, UniProt P47898); experiment: Counterscreen for agonists of OPRM1-OPRD1 heterodimerization: luminescence-based cell-based high throughput dose response assay to identify agonists of 5-hydroxytryptamine (serotonin) 5A receptor (HTR5A). [Related pubchem assays (depositor defined):AID504326, AID504355, AID504692, AID504904, AID504905]; type: functional
# [4] = biological target: Delta-type opioid receptor (Homo sapiens, UniProt P41143); experiment: Counterscreen for agonists of heterodimerization of the mu 1 (OPRM1) and delta 1 (OPRD1) opioid receptors: Luminescence-based cell-based high throughput dose response assay to identify agonists of OPRD1 homodimerization. [Related pubchem assays (depositor defined):AID504326, AID504355, AID504692, AID504904, AID504905]; type: functional
# [5] = system: A-375; experiment: MITF: Counter assay: A375 proliferation Measured in Cell-Based System Using Plate Reader - 2084-03_Inhibitor_Dose_DryPowder_Activity. [Related pubchem assays (depositor defined):AID488944]; type: functional; conditions: Homo sapiens
# [6] = biological target: Mitogen-activated protein kinase 10 (Homo sapiens, UniProt P53779); experiment: Dose response biochemical screening assay for inhibitors of c-Jun N-Terminal Kinase 3 (JNK3). [Related pubchem assays: 746 ]
# [7] = system: A-375; experiment: proliferation inhibition in MITF-low A375 cells – cell-based, cherry-pick samples, set 2, counter-screen for MITF modulator project, dose response (AID 540335); type: functional; conditions: Homo sapiens
# [8] = general mammalian cell viability loss – activator set, cherry-pick, cytotoxicity control for miR-122 modulator project, dose response (AID 720690); type: functional, cell-based;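 note: HEK293T human cells scored for general mammalian cytotoxicity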
# [9] = system: Vero; experiment: mammalian cell viability reduction – secondary assay, cytotoxicity control for West Nile virus antiviral project, dose response (AID 1650); type: functional; conditions: Chlorocebus sabaeus
# [10] = Trypanosoma cruzi growth suppression in host cells – NIH3T3 host cells, beta-gal luminescence, confirmation (AID 2044); type: functional, cell-based;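 note: intracellular parasites grown in NIH/3T3 mouse fibroblasts as host cells; luminescent beta-galactosidase reporter signal from transgenic T. cruzi replicating inside host cells; inhibitors lower the luminescence signal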
# [11] = NIH3T3 cell viability loss – ATP luminescence, mouse fibroblasts, counter-screen, dose response (AID 2010); type: functional, cell-based;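 note: cells exposed to compound for about 90 hours before reading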
# [12] = biological target: DNA damage-inducible transcript 3 protein (Mus musculus, UniProt P35639); type: functional, Cricetulus griseus
# [13] = general mammalian cell viability loss – inhibitor set, cherry-pick, set 2, cytotoxicity control for miR-122 modulator project, dose response (AID 720697); type: functional, cell-based
# [14] = biological target: X-box-binding protein 1 (Homo sapiens, UniProt P17861); type: functional, Cricetulus griseus;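 note: confirmatory dose-response counter-screen serving a CHOP assay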
# [15] = biological target: Phospholipase A2 (Homo sapiens, UniProt P04054); type: functional;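 note: confirmatory dose-response counterscreen on phospholipase A2, testing hits that came from an ultra-high-throughput screen for ATG4B inhibitors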
# [16] = biological target: T1, Cysteine protease ATG4B (Homo sapiens, UniProt Q9Y4P1); type: functional;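 note: Fluorescence-based dose-response confirmation assay measuring inhibition of ATG4B activity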
# T1 sequence (Q9Y4P1 whole entry): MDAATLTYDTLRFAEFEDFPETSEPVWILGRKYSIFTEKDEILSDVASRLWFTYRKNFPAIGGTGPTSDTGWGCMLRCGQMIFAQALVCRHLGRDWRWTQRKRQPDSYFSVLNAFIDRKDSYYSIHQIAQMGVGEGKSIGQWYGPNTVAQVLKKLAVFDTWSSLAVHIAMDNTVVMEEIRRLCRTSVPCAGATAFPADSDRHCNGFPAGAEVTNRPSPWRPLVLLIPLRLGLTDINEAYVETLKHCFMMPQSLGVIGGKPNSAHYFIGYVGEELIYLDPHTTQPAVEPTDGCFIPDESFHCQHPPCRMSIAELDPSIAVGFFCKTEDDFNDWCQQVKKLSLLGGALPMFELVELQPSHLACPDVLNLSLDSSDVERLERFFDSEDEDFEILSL
# [17] = activation of miR-122 Renilla sensor silencing – cell-based, Huh7 psiCHECK-miR122, Renilla luciferase, cherry-picked, dose response (AID 651956); type: functional;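 note: huh7 hepatoma cells stably carrying a psiCHECK-2 miR-122 sensor plasmid; renilla luciferase signal reporting endogenous miR-122 activity after 48 h compound exposure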
# [18] = biological target: T2, Caspase-9 (Homo sapiens, UniProt P55211); experiment: inhibitors of purified CASP9 protease – biochemical, fluorescence, plate reader, cherry-picked samples, selectivity assay for caspase-6 inhibitor project, dose response (AID 743293)
# T2 sequence (P55211 whole entry): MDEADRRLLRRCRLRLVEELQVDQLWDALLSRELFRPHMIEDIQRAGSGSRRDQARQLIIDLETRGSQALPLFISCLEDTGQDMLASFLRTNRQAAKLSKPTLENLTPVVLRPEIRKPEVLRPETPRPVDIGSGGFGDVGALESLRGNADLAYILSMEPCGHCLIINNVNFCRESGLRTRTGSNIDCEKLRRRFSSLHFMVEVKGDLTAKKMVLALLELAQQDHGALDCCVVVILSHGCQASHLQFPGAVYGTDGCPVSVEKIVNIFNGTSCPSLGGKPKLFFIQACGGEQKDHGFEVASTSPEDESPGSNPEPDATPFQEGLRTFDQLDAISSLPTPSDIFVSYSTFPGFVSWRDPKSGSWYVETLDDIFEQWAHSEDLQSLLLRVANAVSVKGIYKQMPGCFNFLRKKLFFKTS
# [19] = biological target: T3, Sentrin-specific protease 8 (Homo sapiens, UniProt Q96LD8); type: functional
# T3 sequence (Q96LD8 whole entry): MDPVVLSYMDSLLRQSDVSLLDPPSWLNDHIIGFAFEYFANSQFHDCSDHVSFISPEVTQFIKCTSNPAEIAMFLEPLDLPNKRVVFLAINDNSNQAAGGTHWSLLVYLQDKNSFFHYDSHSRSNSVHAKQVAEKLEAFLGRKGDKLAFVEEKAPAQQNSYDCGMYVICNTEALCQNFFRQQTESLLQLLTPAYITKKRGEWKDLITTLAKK
# [20] = system: Jurkat; experiment: blockers of NF-kB activation in T cells – Jurkat, luciferase reporter, luminescence, B- and T-cell, dose response (AID 489004); type: functional, cell-based; conditions: Homo sapiens;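 note: NF-kB luciferase reporter Jurkat cells stimulated with PMA plus ionomycin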
# [21] = biological target: T4, Caspase-6 (Homo sapiens, UniProt P55212); experiment: inhibition of CASP6 peptide cleavage – biochemical, VEID-R110 fluorescence, cherry-pick, dose response (AID 720632)
# T4 sequence (P55212 whole entry): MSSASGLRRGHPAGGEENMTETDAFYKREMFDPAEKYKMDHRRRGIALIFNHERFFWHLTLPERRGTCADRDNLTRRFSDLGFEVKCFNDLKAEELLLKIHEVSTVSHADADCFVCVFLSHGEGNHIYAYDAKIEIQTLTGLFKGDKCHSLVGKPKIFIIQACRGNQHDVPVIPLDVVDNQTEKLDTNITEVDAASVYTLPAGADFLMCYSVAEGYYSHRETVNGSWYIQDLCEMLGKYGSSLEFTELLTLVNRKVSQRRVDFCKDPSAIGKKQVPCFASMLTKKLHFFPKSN
# [22] = biological target: T5, Protein RecA (Mycobacterium tuberculosis, UniProt P9WHJ3); experiment: Fluorescence Cell-Free Homogeneous Dose Retest to Identify Inhibitors of RecA-Intein Splicing Activity. [Related pubchem assays (depositor defined):AID2097, AID2223, AID489010, AID492950]; type: functional
# T5 sequence (P9WHJ3 whole entry): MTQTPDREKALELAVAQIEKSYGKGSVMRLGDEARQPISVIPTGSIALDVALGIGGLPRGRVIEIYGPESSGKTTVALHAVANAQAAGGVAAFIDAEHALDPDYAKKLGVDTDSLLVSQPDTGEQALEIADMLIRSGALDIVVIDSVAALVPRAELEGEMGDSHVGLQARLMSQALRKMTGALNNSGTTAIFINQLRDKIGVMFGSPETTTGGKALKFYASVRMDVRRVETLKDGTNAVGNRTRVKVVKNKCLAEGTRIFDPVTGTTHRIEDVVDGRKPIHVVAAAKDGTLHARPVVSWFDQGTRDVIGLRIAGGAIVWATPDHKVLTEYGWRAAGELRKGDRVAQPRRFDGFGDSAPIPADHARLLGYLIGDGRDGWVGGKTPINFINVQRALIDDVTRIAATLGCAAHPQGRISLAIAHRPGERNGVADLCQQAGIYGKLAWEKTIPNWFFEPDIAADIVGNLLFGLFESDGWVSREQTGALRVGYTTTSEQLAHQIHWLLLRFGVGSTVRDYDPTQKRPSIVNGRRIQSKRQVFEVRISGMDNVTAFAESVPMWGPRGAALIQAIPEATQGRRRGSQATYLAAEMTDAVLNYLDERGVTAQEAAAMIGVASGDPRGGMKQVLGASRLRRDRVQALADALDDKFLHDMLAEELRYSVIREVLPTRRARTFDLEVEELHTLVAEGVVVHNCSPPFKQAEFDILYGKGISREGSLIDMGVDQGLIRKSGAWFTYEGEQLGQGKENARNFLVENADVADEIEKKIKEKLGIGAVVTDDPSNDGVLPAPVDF
# [23] = system: INS1; experiment: INS-1E survival protection against cytokine death – cell-based, luminescence, retest, dose response (AID 449756); type: functional; conditions: Rattus norvegicus;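 note: cell death triggered by IL-1 beta plus TNF-alpha plus IFN-gamma mixture; protective hits raise ATP signal compared with cytokine alone wells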
# [24] = biological target: DNA repair protein RAD52 homolog (Homo sapiens, UniProt P43351); type: functional, biochemical
# [25] = biological target: T6, Caspase-7 (Homo sapiens, UniProt P55210); experiment: caspase-7 enzyme inhibition, selectivity check – biochemical, DEVD-R110 fluorescence, cherry-pick, selectivity assay for caspase-6 inhibitor project, dose response (AID 743295); type: functional
# T6 sequence (P55210 whole entry): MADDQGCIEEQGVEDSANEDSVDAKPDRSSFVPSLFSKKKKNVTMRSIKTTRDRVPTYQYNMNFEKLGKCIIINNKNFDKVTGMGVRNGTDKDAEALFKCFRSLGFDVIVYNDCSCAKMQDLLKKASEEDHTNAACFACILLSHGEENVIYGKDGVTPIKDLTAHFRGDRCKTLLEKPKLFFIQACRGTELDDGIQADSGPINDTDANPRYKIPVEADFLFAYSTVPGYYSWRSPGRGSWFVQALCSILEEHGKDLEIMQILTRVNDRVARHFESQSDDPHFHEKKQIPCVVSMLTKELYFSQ
# [26] = biological target: T7, Replicative DNA helicase DnaB (Mycobacterium tuberculosis, UniProt P9WMR3); experiment: DnaB intein splicing inhibitors, dose response, biochemical, cell-free fluorescence (AID 449749); type: functional
# T7 sequence (P9WMR3 whole entry): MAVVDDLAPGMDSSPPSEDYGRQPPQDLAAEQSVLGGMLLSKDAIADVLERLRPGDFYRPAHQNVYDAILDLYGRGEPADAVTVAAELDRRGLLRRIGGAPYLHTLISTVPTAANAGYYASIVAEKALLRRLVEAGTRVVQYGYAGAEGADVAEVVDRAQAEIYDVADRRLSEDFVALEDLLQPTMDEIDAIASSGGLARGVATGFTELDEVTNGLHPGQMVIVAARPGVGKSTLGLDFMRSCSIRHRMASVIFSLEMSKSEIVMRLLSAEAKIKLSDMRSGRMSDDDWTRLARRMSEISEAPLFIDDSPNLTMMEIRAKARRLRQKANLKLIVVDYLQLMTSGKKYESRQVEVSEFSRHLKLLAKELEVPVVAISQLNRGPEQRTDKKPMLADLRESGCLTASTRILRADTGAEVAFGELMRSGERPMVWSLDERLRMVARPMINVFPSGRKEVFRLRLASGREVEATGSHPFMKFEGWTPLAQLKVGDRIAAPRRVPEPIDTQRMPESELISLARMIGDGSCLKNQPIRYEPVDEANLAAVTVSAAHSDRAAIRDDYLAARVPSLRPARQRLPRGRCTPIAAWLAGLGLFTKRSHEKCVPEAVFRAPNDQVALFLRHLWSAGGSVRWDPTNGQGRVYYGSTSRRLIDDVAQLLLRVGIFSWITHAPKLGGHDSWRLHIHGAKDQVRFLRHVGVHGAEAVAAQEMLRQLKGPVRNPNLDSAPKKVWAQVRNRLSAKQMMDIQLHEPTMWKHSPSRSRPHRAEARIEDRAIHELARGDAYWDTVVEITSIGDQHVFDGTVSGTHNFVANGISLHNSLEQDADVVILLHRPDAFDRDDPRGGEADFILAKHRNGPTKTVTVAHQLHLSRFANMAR
# [27] = HEK-293T viability loss, compound-treated – cell-based, uHTS hits, cytotoxicity control for B/T-cell NF-kB inhibitor project, dose response (AID 489019); type: functional;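 note: IC50 reflects cytotoxicity as loss of cell viability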
# [28] = biological target: Caspase-8 (Homo sapiens, UniProt Q14790); experiment: inhibitors of purified CASP8 protease – biochemical, Z-IETD-R110 fluorescence, cherry-picked samples, selectivity assay for caspase-6 inhibitor project, dose response (AID 743294)
# [29] = biological target: T3, Sentrin-specific protease 8; type: functional; remark: listed apart in the source
# [30] = microbe, parasite or virus in culture; type: functional; conditions: Mycobacterium tuberculosis
# Mu-type opioid receptor, sequence (P35372 whole entry): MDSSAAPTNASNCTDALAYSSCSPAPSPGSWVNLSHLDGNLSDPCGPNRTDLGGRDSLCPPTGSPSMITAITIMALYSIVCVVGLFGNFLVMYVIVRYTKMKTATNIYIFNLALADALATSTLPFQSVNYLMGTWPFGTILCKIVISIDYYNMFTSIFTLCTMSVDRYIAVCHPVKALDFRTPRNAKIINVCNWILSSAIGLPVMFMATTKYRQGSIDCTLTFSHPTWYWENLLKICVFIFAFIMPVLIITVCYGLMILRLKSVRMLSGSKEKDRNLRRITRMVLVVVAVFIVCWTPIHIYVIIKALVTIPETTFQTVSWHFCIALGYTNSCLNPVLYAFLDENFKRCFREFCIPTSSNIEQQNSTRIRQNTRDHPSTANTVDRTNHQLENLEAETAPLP
# 5-hydroxytryptamine receptor 5A, sequence (P47898 whole entry): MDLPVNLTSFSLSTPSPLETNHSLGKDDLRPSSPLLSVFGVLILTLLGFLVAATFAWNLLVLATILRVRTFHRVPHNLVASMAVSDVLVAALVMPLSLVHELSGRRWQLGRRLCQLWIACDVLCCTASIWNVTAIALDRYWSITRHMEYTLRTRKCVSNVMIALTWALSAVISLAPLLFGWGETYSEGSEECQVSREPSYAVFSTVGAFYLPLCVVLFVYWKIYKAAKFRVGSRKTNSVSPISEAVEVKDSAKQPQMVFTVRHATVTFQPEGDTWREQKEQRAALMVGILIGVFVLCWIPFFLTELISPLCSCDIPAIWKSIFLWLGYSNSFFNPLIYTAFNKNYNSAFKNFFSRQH
# Delta-type opioid receptor, sequence (P41143 whole entry): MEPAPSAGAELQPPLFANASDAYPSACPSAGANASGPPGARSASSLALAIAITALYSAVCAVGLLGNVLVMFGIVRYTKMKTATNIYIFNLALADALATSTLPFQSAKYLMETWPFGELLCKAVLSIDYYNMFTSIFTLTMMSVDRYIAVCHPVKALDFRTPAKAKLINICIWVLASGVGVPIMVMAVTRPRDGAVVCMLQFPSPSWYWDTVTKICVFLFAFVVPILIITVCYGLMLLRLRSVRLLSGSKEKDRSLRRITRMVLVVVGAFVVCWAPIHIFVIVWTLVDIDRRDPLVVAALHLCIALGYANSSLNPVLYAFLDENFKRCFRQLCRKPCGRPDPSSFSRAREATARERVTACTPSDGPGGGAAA
# DNA damage-inducible transcript 3 protein, sequence (P35639 whole entry): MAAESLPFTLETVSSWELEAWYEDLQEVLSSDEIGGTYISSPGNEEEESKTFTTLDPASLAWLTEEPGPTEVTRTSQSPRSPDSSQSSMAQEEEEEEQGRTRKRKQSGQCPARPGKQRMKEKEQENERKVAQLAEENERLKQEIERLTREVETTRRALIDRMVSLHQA
# DNA repair protein RAD52 homolog, sequence (P43351 whole entry): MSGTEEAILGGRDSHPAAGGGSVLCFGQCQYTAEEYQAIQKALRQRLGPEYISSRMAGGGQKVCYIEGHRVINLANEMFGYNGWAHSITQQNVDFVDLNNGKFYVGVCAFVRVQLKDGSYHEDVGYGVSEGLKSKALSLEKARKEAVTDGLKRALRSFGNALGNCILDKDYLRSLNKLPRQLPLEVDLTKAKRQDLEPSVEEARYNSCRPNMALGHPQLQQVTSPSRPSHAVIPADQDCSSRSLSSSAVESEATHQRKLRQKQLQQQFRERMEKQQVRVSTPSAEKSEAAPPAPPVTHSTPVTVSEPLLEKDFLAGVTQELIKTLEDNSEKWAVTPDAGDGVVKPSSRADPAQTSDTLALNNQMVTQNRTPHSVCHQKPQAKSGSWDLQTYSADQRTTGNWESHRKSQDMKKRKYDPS
# X-box-binding protein 1, sequence (P17861 whole entry): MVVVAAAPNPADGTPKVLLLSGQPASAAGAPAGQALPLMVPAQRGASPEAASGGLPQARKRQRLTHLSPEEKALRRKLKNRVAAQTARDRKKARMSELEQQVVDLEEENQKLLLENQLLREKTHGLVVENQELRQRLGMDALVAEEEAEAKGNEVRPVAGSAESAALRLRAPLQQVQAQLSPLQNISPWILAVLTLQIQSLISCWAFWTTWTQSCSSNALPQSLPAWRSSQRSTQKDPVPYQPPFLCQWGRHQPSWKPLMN
# Phospholipase A2, sequence (P04054 whole entry): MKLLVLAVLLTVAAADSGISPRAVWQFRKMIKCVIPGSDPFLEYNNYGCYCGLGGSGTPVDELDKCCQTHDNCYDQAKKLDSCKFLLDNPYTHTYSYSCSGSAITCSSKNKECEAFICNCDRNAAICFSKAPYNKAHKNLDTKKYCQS
# Caspase-8, sequence (Q14790 217-374 limits assumed): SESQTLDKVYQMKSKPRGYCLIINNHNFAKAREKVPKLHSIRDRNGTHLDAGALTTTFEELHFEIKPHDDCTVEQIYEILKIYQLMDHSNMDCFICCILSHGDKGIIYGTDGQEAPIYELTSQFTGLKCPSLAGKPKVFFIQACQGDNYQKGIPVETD
# Caspase-8, sequence (Q14790 385-479 limits assumed): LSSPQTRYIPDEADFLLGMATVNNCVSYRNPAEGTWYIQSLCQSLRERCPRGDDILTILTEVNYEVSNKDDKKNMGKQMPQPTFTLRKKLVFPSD
# Mitogen-activated protein kinase 10, sequence (P53779 whole entry): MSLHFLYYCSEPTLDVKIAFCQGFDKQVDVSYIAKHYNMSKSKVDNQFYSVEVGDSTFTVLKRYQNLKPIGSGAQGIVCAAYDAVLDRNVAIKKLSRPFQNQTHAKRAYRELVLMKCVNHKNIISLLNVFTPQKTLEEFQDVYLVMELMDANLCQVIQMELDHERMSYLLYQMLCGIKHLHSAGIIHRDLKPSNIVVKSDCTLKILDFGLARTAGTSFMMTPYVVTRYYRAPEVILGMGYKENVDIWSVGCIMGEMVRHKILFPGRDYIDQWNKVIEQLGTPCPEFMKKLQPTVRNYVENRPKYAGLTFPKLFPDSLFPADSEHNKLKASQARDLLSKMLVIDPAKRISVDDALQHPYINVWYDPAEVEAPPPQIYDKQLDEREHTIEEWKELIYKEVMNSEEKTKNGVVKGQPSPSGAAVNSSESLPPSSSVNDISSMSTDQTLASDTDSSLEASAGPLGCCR
smiles,measurement,setting,value
O=C(CN1CCCCC1)Nc1cc(Cl)ccc1Cl,AC50,[1],144 µM (active)
CCOC(=O)C1(CC2CCCCO2)CCN(Cc2ccc(OC)cc2F)CC1 (stereo not drawn),EC50,[2],> 92.5 µM (inactive)
same,EC50,[3],> 92.5 µM (inactive)
same,EC50,[4],> 92.5 µM (inactive)
Cc1ccc2nc(Cc3ccc(N)cc3)oc2c1,AC50,[5],> 35 µM (active)
same,IC50,[6],49.9 µM (not active)
same,AC50,[7],> 35 µM (active)
Clc1ccc2c(N/N=C/c3ccccc3Br)ccnc2c1,EC50,[2],> 92.5 µM (inactive)
same,AC50,[8],16 µM (active)
same,CC50,[9],7.23 µM (active)
same,EC50,[10],1.02 µM (active)
same,EC50,[11],> 60 µM (not active)
same,Absolute IC50 (CHOP),[12],10 µM
same,EC50,[3],> 92.5 µM (inactive)
same,AC50,[13],7.49 µM (active)
same,Absolute IC50 (XBP1),[14],10 µM
same,EC50,[4],> 92.5 µM (inactive)
same,IC50,[15],1.75 µM (active)
same,IC50,[16],3.17 µM (active)
same,AC50,[17],39.6 µM (active)
COc1cc(NC(C)CCCN)c2ncccc2c1 (stereo not drawn) [PRIMAQUINE PHOSPHATE],AC50,[18],> 70 µM (inactive)
same,IC50,[19],0.935 µM (active)
same,IC50,[20],38 µM (inactive)
same,AC50,[21],1.9 µM (active)
same,EC50,[22],1.17 µM (active)
same,AC50,[23],3.83 µM (active)
same,AC50,[24],5.55 µM (active)
same,AC50,[25],4.07 µM (active)
same,AC50,[26],9.98 µM (active)
same,IC50,[27],> 80 µM (inactive)
same,AC50,[28],57.9 µM (active)
same,IC50,[29],0.987 µM (active)
same,CC50,[30],> 40 µM (active)
